The record followed here is patent US4299970A, “Oxy-alkylamino carboxylic esters” (Beecham Group Limited, priority 1974, dated 1981).

Structures are written as SMILES. Converted amounts (≈) assume the structure as drawn. Read-outs that look alike come from different tables or passages of the source.

For assay [1], the system named is pentagastrin-stimulated gastric acid secretion. Put plainly: inhibition of pentagastrin-stimulated gastric acid secretion, anaesthetised perfused rat stomach (Ghosh and Schild preparation). Type of assay: in vivo. The note with it: intravenous. The source says:
a. The compounds were examined for their ability to inhibit pentagastrin-stimulated gastric acid secretion in the anaesthetised, perfused rat stomach preparation (Ghosh and Schild preparation).
M. N. Ghosh and H. O. Schild, (1958), Brit. J. Pharmacol, 13, 54.
The compounds were given intravenously.

Another assay has as its system gastric acid secretion. As to the kind of experiment: inhibition of gastric acid secretion in the pyloric ligated rat (Shay rat preparation). The note with it: for ED50: sc. Type of assay: in vivo. The source says:
b. The compounds were examined for their ability to inhibit gastric acid secretion in the pyloric ligated rat model (Shay rat preparation).
H. Shay, S. A. Komarov, S. S. Fels, D. Merance, M. Gruenstein and H. Siplet, (1945), Gastroenerology, 5, 43.

The test system of assay [2] is gastric acid secretion, stimulated by pentagastrin infusion. Put plainly: inhibition of pentagastrin-stimulated gastric acid secretion, chronic fistula rat preparation. Type of assay: in vivo. The conditions noted are these: 2-5 mg/kg, s.c. The source says: c. The compounds were examined for their ability to inhibit gastric acid secretion, stimulated by pentagastrin infusion, in the chronic fistula rat preparation.
P. H. Guth and R. Mendick, (1965), Amer. J. Gastroenterology, 44, 545.

In assay [3] the test system is indomethacin-induced ulcer. As to the kind of experiment: indomethacin-induced ulcer test in fasted rats. Format: in vivo, rat. The conditions noted are these: 20 mg/kg, s.c., twice; 5 hour test; indomethacin 50 mg/kg, i.p. The procedure: d. Anti-ulcer activity was determined in a 5 hour indomethacin-induced (50 mg/kg, i.p.) ulcer test in fasted rats. Compound 63 inhibited ulceration by 71% when given at 20 mg/kg, s.c., twice during the course of the test.

The subject of assay [4] is 5-hydroxy-tryptamine-induced bronchoconstriction. As to the kind of experiment: inhibition of 5-hydroxytryptamine-induced bronchoconstriction (Konsett-Rossler preparation). Type of assay: in vivo, guinea pig. The conditions noted are these: Cavia porcellus; intravenous, 2 minutes prior to 5-hydroxytryptamine dose. On the procedure: a. The compounds were examined for their ability to inhibit 5-hydroxy-tryptamine-induced bronchoconstriction in the anaesthetised, artifically respired guinea pig (Konsett-Rossler preparation).
H. Konsett and R. Rossler, (1940), Naunyn-Schneidebergs Arch. Exp. Path. Pharmak., 195, 71.
After preparation of the guinea pig, a dose of 5-hydroxytryptamine producing an adequate response was determined by dosing, i.v., every 6 minutes. This dose was usually 10 μg. After a standard response was obtained, compounds were given intra-venously 2 minutes prior to the next standard dose and dosing of 5-hydroxytryptamine was continued every 6 minutes until the response returned to control values.

Assay [5] deals with histamine-induced asphyxic collapse. As to the kind of experiment: protection against aerosol administered, histamine-induced asphyxic collapse. Type of assay: in vivo, guinea pig. The source says:
b. The compounds were examined for their ability to protect against aerosol administered, histamine-induced asphyxic collapse in guinea pigs.
M. A. Wasserman and R. L. Griffen, (1975), Am. Rev. Resp. Dis., 111, 946.

A further assay deals with arterial blood pressure. Put plainly: effect on arterial blood pressure in the anaesthetised, normotensive rat. The conditions noted are these: intravenous, dose range 0.001 → 1.0 mg/kg. Format: in vivo. The procedure: a. The effect of the compounds on arterial blood pressure was determined in the anaesthetised, normotensive rat. The rat preparation was similar to that desribed in "Pharmacological experiments on intact preparations", E. and S. Livingstone, Edinburgh and London, 1970, p. 63.
The active compounds were predominantly depressor agents in the normotensive rat.

Assay [6] deals with femoral artery of the hind limb. As to the kind of experiment: vasodilator activity in femoral artery of the hind limb (vascular resistance). The conditions noted are these: dose range of 0.01-1 mg/kg, intra-arterially. Format: in vivo, beagle dog. On the procedure: (§1) b. The vasodilator activity of the compounds was determined in the femoral artery of the hind limb of the anaesthetised beagle dog. The method used was similar to that described by J. Nakano and J. R. McCurdy, (1967), J. Pharmac. Exp. Ther., 156, 538.
The compounds were administered into the iliac artery and the effects on both flow and pressure in the hind limb were recorded. Changes in vascular resistance (R) were calculated from the following expression: [formula]

Assay [7] has as its system total peripheral resistance. As to the kind of experiment: total peripheral resistance, intravenous. Type of assay: in vivo, beagle dog. The conditions noted are these: dose range of 0.01-10 mg/kg, intra-venously. The procedure:
as §1
In other experiments the compounds were administered into the left femoral vein and the right femoral arterial pressure and cardiac output were monitored. From these experiments, total peripheral resistance (TPR) was calculated from the expression: [formula]

Assay [8] has as its system guinea pig platelet aggregation induced by ADP. Put plainly: inhibition of guinea pig platelet aggregation induced in vitro by ADP. Type of assay: cell-based. The note with it: Cavia porcellus, ADP 5.45×10^-7 M, platelet rich plasma, 37° C. On the procedure: a. The compounds were examined for their ability to inhibit guinea pig platelet aggregation induced, in vitro, by 5.45×10^-7 M adenosine diphosphate (ADP).
The method consisted of diluting the compound immediately before use from a 10 mg/ml solution in ethanol to a 1 mg/ml solution with saline and then adding the appropriate volume to 0.5 ml of platelet rich plasma. The mixture was stirred at 37° C. for 1 minute before 25 μl of an ADP solution was added to give a final ADP concentration of 5.45×10^-7 M. The aggregation response was then recorded relative to the control.

A further assay relates to blood pressure. As to the kind of experiment: anti-hypertensive activity in the renal hypertensive rat. Type of assay: in vivo. The note with it: 100 mg/kg, orally. On the procedure:
c. The anti-hypertensive activity of the compounds was determined in the renal hypertensive rat. Rats were made hypertensive by nephrectomy and treatment with deoxycorticosterone acetate/NaCl. The compounds were administered orally to a group of 3 hypertensive rats at a dose level of 100 mg/kg and their blood pressure was monitored after 4, 6 and 24 hours.

The test system of assay [9] is human platelet aggregation induced by adenosine diphosphate (ADP). Put plainly: inhibition of human platelet aggregation induced in vitro by ADP. Type of assay: cell-based. The conditions noted are these: 10^-4 M, platelet rich plasma, 37° C. On the procedure: (§2) b. The compounds were examined for their ability to inhibit human platelet aggregation induced, in vitro, either by adenosine diphosphate (ADP) or collagen. The compounds were added in saline or dimethylformamide to platelet rich plasma at 37° C. to give a final concentration of 10^-4 M. After 3 minutes the platelets were challenged with ADP or collagen. The aggregation response was then recorded relative to the control.

The test system of assay [10] is human platelet aggregation induced by collagen. Put plainly: inhibition of human platelet aggregation induced in vitro by collagen. Type of assay: cell-based. The procedure: as §2
The test system of assay [11] is gerbil colon; contraction to prostaglandin F2α. As to the kind of experiment: prostaglandin antagonist activity on the isolated perfused gerbil colon (contraction to prostaglandin F2α). The conditions noted are these: Meriones unguiculatus; reduction of contraction to prostaglandin F2α; one minute pre-contact time. On the procedure: The compounds were tested for prostaglandin-like and for prostaglandin antagonist activity on the isolated perfused gerbil colon preparation (smooth muscle). This has been shown by J. R. Weeks, J. R. Schultz and W. E. Brown, (1968), J. App. Physiol, 25, 783, to have greater precision and sensitivity than other preparations. A 15 mm portion of the descending colon is suspended in an organ bath and perfused with De Jalon's saline at 32° C. Compounds were given in a three minute cycle with a 45 second contact time and a 15 second washout time. Antagonist compounds were given with a one minute pre-contact time.
Antagonist activity was determined by measuring the percentage reduction of the contraction to two standard doses of prostaglandin F2α which gave responses between 20% and 80% of maximum response.

Where [12] appears, read: subcutaneously twice, 3 hour Shay rat preparation.

The term ED50 denotes the dose at which the effect has come halfway, by size or by number of responders. By IC50 is commonly meant the concentration at which inhibition is half-maximal. As to `CCCCCCC(C)(O)CCN1C(=O)CC(=O)C1CCCCCCC(=O)OCC` (stereo not drawn) [Compound 63, 2-(6'-Ethoxycarbonyl-n-hexyl)-1-(3"-hydroxy-3"-methyl-n-nonyl)-pyrrolidin-3,5-dione], the 50% effective dose (ED50) came to 0.09 mg/kg in assay [1]; 5.3 mg/kg in the assay on gastric acid secretion (subcutaneously once, 3 hour Shay rat preparation, at the time of ligation, read-out: ED50, given once); 2.25 mg/kg in the assay with gastric acid secretion (subcutaneously twice, 3 hour Shay rat preparation, at time of ligation and 1.5 hours after, read-out: ED50, given twice); 0.008 mg/kg in assay [4]. Besides, the “activity when given intraduodenally” value in the assay with gastric acid secretion (intraduodenally, Shay rat preparation) is on record as “active”. For the same compound, the “H^+ concentration” value with gastric acid secretion (setting [12]) is “decreasing the H^+ concentration”. Moreover, the “total titratable acidity in the stomach” value in the assay on gastric acid secretion (setting [12]) is on record as “lowered the total titratable acidity in the stomach”. For the same compound, in the assay on gastric acid secretion (setting [12]), the volume of secretion result is given as “inhibiting the volume of secretion”. Besides, the inhibiting acid secretion result in assay [2] is recorded as “very effective”. The compound further yielded an inhibition of ulceration in [3] of 71%. The “protecting against histamine challenge” value in assay [5] was “very effective”. The “% Depression at 1 mg/kg” value in the assay with arterial blood pressure is recorded as 60%. Further, the vascular resistance entry in assay [6] is listed as “decreased vascular resistance”. In assay [7], the “total peripheral resistance (TPR)” value is recorded as “decreased total peripheral resistance”. This compound also returned an IC50 in assay [8] of 1.3 µM.
A word on the inhibition: it is the share of the control response that was lost under treatment. A low value points to a weak effect. Regarding `CCCCCC(O)CCN1C(=O)CCC(=O)C1CCCCCCC(=O)OCC` (stereo not drawn) [Compound 73, 2-(6'-Ethoxycarbonyl-n-hexyl)-1-(3"-hydroxy-n-octyl)-piperidin-3,6-dione], the vascular resistance result in assay [6] is listed as “decreased vascular resistance”. For the same compound, the “total peripheral resistance (TPR)” value in [7] is listed as “decreased total peripheral resistance”. Further, the “fall in blood pressure after 4 hours” value with blood pressure (4 hours) amounted to 16%. In the assay with blood pressure (6 hours), the “blood pressure after 6 hours” value was “risen to normal hypertensive levels”. Also, the IC50 amounted to 44 µM in [8]; 2.8 µM in assay [10] (Platelet, read-out: IC50 against collagen-induced aggregation); 3.4 µg/mL (≈ 8.55 µM) in assay [11]. Besides, the inhibition at 100 µM in [9] is 87%; in assay [10] (10^-4 M, collagen, platelet rich plasma, 37° C.), 100%.
